Patent US10413535B2, “Pharmaceutical compositions comprising an integrin ALPHA4 antagonist for use in treating ocular inflammatory conditions” (AXEROVISION, INC., priority 2015, dated 2019)
pIC50, pKd: −log10 of the molar value. Entries after “also recorded” stand apart in the source; their conditions may differ.

Tests used:
Rat α4β1 = target: T1, Rat α4β1 (Rattus norvegicus, UniProt D3ZMQ3+P49134); assay: Saturation binding assay in RBL-2H3 cells (SPA); settings: [3H]GW559090, RBL-2H3 cells
T1 construct: rat RBL-2H3 cells which express rat α4β1; endogenous in cells; host or cells: RBL-2H3 cells (rat basophilic cell line)
Procedure: (§1) Jurkat J6 cells (human lymphoblast cell line) were grown as a suspension culture in RPMI 1640 supplemented with FCS (10%) and glutamine (2 mM). RPMI8866 cells (human B lymphoid cell line) were grown as a suspension culture in RPMI 1640 supplemented with FCS (10%) and glutamine (2 mM). RBL-2H3 cells (rat basophilic cell line) were cultured in Eagle's MEM plus Earles salts supplemented with 2 mM L-glutamine, 1 mM sodium pyruvate, 1× non-essential amino acids, 1 mM Na pyruvate 10% heat inactivated foetal calf serum.
The assay buffer contained 50 mM HEPES, 100 mM NaCl, 1 mM MnCl2, pH 7.5 (with NaOH). WGA SPA beads were used at 1 mg/well. Cells were harvested and resuspended in assay buffer and 1 million cells were added per well in a white bottomed plate. Cold GW559090 to give a final assay concentration of 20 μM (to define nonspecific binding) or buffer alone were added and then [3H] GW559090 across a concentration range across the plate was added (nominal [3H] GW559090 concentration range was 0.01 to 200 nM). The final assay volume was 250 μL. The plate was then incubated at 37° C. for 2 h. Disintegrations were counted by scintillation (from the WGA SPA beads) in a Wallac Microbeta plate reader.
The actual amount of [3H] GW559090 added for each concentration of the saturation curve was measured by counting disintegrations per minute from a 50 μL aliquot of the label dilution range.

[1] = test system: cells of draining cervical lymph nodes; assay: Flow cytometry of draining cervical lymph nodes, desiccating stress 1 day; format: in vivo, mouse; settings: 1 day DS; for CD11c+ dendritic cells in draining cervical lymph nodes / CD11c+/MHC II+ dendritic cells in draining cervical lymph nodes: listed as compound of formula I
Procedure: Female C57BL/6 mice, aged 6 to 8 weeks, were subjected to DS for 5 days (DS5) as described previously (de Paiva et al., 2006b; Niederkorn et al., 2006). Topical bilateral treatment with 1 eye drop per eye (2 μL volume) or subcutaneous injection (4 μL volume), 2 times per day, was initiated on day 1 concurrently with DS and continued through day 4. Treatment with the compound of formula I or dexamethasone phosphate 0.1% was compared to correspondingly treated vehicle controls. Mice were randomized to receive one of the test articles. Control mice were kept in a non-stressed (NS) environment maintained at 50-75% relative humidity without exposure to airflow or scopolamine and were not treated with test or control article. Treatment effects were assessed on corneal staining with Oregon Green Dextran (OGD); expression of inflammatory markers in ocular surface tissues by real time PCR; cell population analysis in draining cervical lymph nodes by FACS analysis; conjunctival T cell infiltration by immunohistochemistry.
Cervical draining lymph nodes (CLN) were surgically excised, placed in a round culture plate with ˜8 mL of complete RPMI media and smashed between two frosted slides.
Single-cell suspensions of CLN from C57BL/6 mice, treated under DS conditions for 1 day, were prepared, centrifuged and sequentially filtered, as previously described (de Paiva et al., 2009a). Subsequently 1.0 mL of ACT solution was added for 30 seconds followed by 2.0 mL of complete RPMI. The cells were once again centrifuged and the supernatant aspirated. Cells were then re-suspended in 2.0 mL of complete RPMI and prepared for counting. Ten μL of Trypan Blue were used for counting and the cells were divided in tubes at 1×10^6 cells/mL. Subsequently, the cells were incubated on ice in 20 μL unconjugated anti-mouse CD16/CD32 (BD Pharmingen, San Diego, Calif.) followed by 80 μL of directly conjugated primary antibody or isotype. Finally the samples were washed with 1 mL PBS/1% FBS, centrifuged and re-suspend in 0.3 mL PBS/1% FBS containing 1:1000 of PI. The samples were stored at 4° C. until the analysis was performed with an A BD LSRII Benchtop cytometer. The data was analysed using BD Diva Software (BD Pharmingen) and FlowJo (TreeStar Inc).
Due to skewed distribution of OGD data, the analysis was done on the log 10 scale to make the data more normally distributed. Log 10 OGD data was averaged across two observers and the left and right eyes. The mixed effects ANOVA model included treatment group as a fixed effect and week as a random effect. 95% and 99% confidence intervals were constructed for the disease (5 day DS vs untreated group kept in separate vivarium) and compound treatment effects (treatment vs vehicle). As these comparisons were all pre-planned (comparing each treatment to its vehicle group), no adjustment was made for multiplicity. Log 10 scale treatment effect estimates and confidence limits were converted back to the original OGD scale, thus representing the estimate for the ratio of group geometric means and their confidence limits. For gene expression analysis, an unpaired T test was performed to compare drug and vehicle treatment. For flow cytometry analysis, a 2-way ANOVA with fixed treatment and random experiment effects was employed to test the treatment differences. The analysis was followed by Dunnett's multiple comparison procedure to compare each of the treatment groups with the vehicle group. T cell density was calculated for each section and averaged across sections for each animal. As the distribution of average cell density data was non-normal, it was analyzed by using non-parametric methods (Kruskal-Wallis procedure, followed by Dunn's multiple comparisons technique).
The draining CLN are an integral part of the immune cycle in DED (Pflugfelder et al., 2008; Schaumburg et al., 2011). […]

α4β1-VCAM-1 = target: T2, α4β1-VCAM-1 (Homo sapiens, UniProt P05556+P13612); assay: VCAM cell adhesion assay, Jurkat J6 cells; format: cell-based; settings: J6 cells to VCAM-1; read-out: Inhibition of cell adhesion (IC50)
T2 construct: characterized in human J6 cells which express VLA-4; endogenous in cells; host or cells: Jurkat J6 cells (human lymphoblast cell line)
Procedure: as §1
Polystyrene 96-well microtitre plates were coated with IgG at a concentration of 0.05 mg/mL in bicarbonate buffer for 2 hours at 37° C. The solution was aspirated and the plates washed twice with PBS. The plates were then incubated overnight at 4° C. with a 1:4000 dilution of VCAM-1 of 3% BSA in PBS. Prior to use the VCAM-1 was aspirated and the plates washed twice with PBS.
J6 or RPMI cells (as required) were labelled with the fluorescent dye BCECF-AM (10 μM and 6×10^6 cells/mL) for 10 min at 37° C. before the excess was removed by centrifugation at 500 g for 5 min and the cells resuspended at a cell concentration of 1.2×10^7 cells/mL in HBSS. Equal volumes HBSS containing the compound of formula I (over concentration range 38.1 pM to 10 μM) and cells were added to the VCAM-1 coated plates. […] The plates were counted in a Wallac Viktor.

[2] = topical treatment, vs vehicle (GW559090 30 mg/mL, 60 μg per eye; Dex 0.1%)

T2 sequence (P13612 34-1032): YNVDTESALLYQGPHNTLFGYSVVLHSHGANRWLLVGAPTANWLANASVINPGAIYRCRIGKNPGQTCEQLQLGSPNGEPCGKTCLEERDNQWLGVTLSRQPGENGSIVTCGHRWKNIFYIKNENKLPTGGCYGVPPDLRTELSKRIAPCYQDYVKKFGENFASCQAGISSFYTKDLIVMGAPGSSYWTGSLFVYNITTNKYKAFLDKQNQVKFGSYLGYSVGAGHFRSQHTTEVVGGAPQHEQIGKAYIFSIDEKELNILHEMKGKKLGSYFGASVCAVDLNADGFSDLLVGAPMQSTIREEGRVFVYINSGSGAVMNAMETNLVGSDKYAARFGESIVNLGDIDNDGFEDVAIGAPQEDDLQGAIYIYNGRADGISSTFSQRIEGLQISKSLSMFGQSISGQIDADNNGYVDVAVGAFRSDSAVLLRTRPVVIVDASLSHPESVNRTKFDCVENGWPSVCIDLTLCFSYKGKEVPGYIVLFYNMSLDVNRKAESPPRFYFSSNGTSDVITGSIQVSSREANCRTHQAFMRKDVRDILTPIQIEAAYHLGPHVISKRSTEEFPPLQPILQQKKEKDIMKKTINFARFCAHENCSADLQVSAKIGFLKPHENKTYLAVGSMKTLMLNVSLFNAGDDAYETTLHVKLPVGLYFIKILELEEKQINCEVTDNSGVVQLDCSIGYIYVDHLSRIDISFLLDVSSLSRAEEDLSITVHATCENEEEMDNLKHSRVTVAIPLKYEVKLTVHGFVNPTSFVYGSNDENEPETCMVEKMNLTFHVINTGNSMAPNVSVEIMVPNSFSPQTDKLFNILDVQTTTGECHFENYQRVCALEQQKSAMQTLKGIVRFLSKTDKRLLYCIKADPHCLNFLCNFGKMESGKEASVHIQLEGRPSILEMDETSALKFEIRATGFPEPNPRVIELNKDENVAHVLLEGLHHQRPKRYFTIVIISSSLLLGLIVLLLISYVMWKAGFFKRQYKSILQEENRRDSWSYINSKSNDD
T2 sequence (P05556 21-798): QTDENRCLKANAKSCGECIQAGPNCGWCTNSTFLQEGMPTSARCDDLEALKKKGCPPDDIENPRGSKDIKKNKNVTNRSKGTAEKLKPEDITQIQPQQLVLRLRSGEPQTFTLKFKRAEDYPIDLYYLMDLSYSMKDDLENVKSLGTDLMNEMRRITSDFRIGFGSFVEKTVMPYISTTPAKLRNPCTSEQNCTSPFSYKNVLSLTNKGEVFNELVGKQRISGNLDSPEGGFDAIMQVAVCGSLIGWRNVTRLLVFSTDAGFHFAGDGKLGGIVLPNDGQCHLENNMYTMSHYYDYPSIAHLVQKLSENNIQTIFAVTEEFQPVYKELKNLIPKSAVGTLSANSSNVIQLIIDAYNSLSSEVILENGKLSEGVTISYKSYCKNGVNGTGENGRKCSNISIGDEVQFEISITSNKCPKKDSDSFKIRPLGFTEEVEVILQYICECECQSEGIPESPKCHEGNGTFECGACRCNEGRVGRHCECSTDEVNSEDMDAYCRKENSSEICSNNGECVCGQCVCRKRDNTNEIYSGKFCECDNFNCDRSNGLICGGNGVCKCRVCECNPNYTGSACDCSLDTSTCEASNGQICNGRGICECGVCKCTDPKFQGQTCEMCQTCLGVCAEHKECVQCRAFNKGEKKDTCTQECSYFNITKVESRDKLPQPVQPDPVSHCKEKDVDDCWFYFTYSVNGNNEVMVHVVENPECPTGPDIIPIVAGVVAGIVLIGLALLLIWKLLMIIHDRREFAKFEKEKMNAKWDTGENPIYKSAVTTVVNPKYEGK
T1 sequence (D3ZMQ3 1-1036): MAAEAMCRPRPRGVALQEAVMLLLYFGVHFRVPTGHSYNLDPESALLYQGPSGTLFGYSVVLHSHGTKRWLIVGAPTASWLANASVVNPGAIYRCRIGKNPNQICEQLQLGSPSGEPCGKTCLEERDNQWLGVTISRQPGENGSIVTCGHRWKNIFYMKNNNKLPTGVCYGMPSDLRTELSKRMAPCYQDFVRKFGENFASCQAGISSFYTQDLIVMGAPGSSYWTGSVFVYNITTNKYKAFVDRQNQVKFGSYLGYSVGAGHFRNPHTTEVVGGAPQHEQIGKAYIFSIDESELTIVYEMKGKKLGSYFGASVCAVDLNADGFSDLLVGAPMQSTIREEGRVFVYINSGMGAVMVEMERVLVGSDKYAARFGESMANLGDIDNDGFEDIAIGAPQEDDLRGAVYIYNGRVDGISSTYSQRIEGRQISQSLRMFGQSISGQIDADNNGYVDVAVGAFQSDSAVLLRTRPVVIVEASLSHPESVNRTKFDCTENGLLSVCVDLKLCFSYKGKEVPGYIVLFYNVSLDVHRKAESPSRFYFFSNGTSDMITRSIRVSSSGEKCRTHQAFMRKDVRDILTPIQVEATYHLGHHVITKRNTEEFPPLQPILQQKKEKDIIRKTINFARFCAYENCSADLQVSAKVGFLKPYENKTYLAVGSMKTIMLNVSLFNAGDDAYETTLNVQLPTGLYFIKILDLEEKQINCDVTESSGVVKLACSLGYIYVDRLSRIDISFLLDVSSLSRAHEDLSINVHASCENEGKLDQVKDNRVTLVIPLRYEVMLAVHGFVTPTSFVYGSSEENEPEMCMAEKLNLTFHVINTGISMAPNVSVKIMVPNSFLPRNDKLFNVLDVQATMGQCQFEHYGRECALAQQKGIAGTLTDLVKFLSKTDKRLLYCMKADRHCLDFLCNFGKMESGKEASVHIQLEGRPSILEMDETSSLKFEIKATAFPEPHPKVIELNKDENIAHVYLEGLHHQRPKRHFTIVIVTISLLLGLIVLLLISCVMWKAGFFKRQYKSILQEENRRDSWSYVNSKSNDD
T1 sequence (P49134 21-799): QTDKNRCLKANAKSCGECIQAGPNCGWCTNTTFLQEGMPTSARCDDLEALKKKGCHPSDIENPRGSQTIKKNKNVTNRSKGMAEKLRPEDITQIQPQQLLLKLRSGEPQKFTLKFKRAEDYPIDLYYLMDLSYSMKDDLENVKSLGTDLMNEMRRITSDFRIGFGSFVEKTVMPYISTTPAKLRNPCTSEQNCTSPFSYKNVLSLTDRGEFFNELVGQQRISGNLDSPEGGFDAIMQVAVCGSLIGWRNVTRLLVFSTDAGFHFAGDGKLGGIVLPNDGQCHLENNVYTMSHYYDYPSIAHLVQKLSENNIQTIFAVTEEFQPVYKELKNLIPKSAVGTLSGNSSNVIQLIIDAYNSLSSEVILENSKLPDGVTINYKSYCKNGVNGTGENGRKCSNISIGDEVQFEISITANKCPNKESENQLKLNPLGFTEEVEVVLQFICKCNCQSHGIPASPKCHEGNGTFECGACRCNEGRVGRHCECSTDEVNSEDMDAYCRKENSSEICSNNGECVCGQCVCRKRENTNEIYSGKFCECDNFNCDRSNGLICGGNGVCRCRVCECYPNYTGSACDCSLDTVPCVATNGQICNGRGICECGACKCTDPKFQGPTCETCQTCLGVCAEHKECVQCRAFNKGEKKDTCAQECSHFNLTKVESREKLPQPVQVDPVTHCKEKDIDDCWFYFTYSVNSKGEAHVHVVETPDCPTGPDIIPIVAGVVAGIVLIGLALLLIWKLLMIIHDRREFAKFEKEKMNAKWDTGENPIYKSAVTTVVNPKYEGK

## Cc1ccccc1OCC(=O)N[C@@H](CC(C)C)C(=O)N[C@@H](Cc1ccc(OC(=O)N2CCC(C(N)=O)CC2)cc1)C(=O)O [GW559090, (2S)-3-[4-({[4-(Aminocarbonyl)-1-piperidinyl]carbonyl}oxy)phenyl]-2-[((2S)-4-methyl-2-{[2-(2-methylphenoxy)acetyl]amino}pentanoyl)amino]propanoic acid]
Rat α4β1
  pKd: 8.98
[1]
  CD4+ and CD8+ T cells in draining lymph nodes: nor did treatment with the compound of formula I or dexamethasone decrease the number of T cells
[1]; systemic (SC BID, 120 μg)
  CD11c+ dendritic cells in draining cervical lymph nodes: Neither systemic treatment with the compound of formula I nor topical treatment with dexamethasone phosphate produced the same effect; also recorded: no significant effect
  CD11c+/MHC II+ dendritic cells in draining cervical lymph nodes: no significant effect
[1]; [2]
  CD11c+ dendritic cells in draining cervical lymph nodes: reduced; also recorded: decreases
  CD11c+/MHC II+ dendritic cells in draining cervical lymph nodes: reduced; also recorded: decreases
α4β1-VCAM-1
  pIC50: 8.11
